Data published in PubChem BioAssay (NCI).
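Where inhibition never reached the appropriate level, the endpoint shown equals the highest concentration tested. Otherwise, values were interpolated linearly from a five-concentration, 48-hour dose response in 96-well plates. TGI: total growth inhibition.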

How the values were obtained:
Experiment in all cases: NCI-60 cell line screen, 48 h
786-0 renal = system: 786-0 renal
A549 NSCLC = system: A549 NSCLC
ACHN renal = system: ACHN renal
CAKI-1 renal = system: CAKI-1 renal
CCRF-CEM leukemia = system: CCRF-CEM leukemia
COLO 205 colon = system: COLO 205 colon
DLD-1 colon = system: DLD-1 colon
DMS 114 small cell lung = system: DMS 114 small cell lung
EKVX NSCLC = system: EKVX NSCLC
HCC-2998 colon = system: HCC-2998 colon
HCT-116 colon = system: HCT-116 colon
HL-60(TB) leukemia = system: HL-60(TB) leukemia
HOP-62 NSCLC = system: HOP-62 NSCLC
HOP-92 NSCLC = system: HOP-92 NSCLC
HT29 colon = system: HT29 colon
IGROV1 ovarian = system: IGROV1 ovarian
K-562 leukemia = system: K-562 leukemia
KM12 colon = system: KM12 colon
KM20L2 colon = system: KM20L2 colon
LOX IMVI melanoma = system: LOX IMVI melanoma
LXFL 529 NSCLC = system: LXFL 529 NSCLC
M14 melanoma = system: M14 melanoma
M19-MEL melanoma = system: M19-MEL melanoma
MALME-3M melanoma = system: MALME-3M melanoma
MOLT-4 leukemia = system: MOLT-4 leukemia
NCI-H226 lung = system: NCI-H226 lung
NCI-H23 lung = system: NCI-H23 lung
NCI-H460 lung = system: NCI-H460 lung
NCI-H522 lung = system: NCI-H522 lung
OVCAR-3 ovarian = system: OVCAR-3 ovarian
OVCAR-4 ovarian = system: OVCAR-4 ovarian
OVCAR-5 ovarian = system: OVCAR-5 ovarian
OVCAR-8 ovarian = system: OVCAR-8 ovarian
RPMI-8226 leukemia = system: RPMI-8226 leukemia
RXF 393 renal = system: RXF 393 renal
SF-268 CNS = system: SF-268 CNS
SF-295 CNS = system: SF-295 CNS
SF-539 CNS = system: SF-539 CNS
SK-MEL-2 melanoma = system: SK-MEL-2 melanoma
SK-MEL-28 melanoma = system: SK-MEL-28 melanoma
SK-MEL-5 melanoma = system: SK-MEL-5 melanoma
SK-OV-3 ovarian = system: SK-OV-3 ovarian
SN12C renal = system: SN12C renal
SNB-19 CNS = system: SNB-19 CNS
SNB-75 CNS = system: SNB-75 CNS
SNB-78 CNS = system: SNB-78 CNS
SW-620 colon = system: SW-620 colon
TK-10 renal = system: TK-10 renal
U251 CNS = system: U251 CNS
UACC-257 melanoma = system: UACC-257 melanoma
UO-31 renal = system: UO-31 renal
XF 498 CNS = system: XF 498 CNS
HCT-15 colon = system: HCT-15 colon
SR leukemia = system: SR leukemia
UACC-62 melanoma = system: UACC-62 melanoma

SMILES: CCc1ccccc1NC(=O)C1=C(C)NC(C)=C(C(=O)Nc2c(CC)cccc2CC)C1c1ccc2c(c1)OCO2 (centres undefined)
- TGI (786-0 renal): 34.8 µM
- TGI (A549 NSCLC): 39.2 µM
- TGI (ACHN renal): 35.1 µM
- TGI (CAKI-1 renal): 39.7 µM
- TGI (CCRF-CEM leukemia): 51.4 µM
- TGI (COLO 205 colon): 44.1 µM
- TGI (DLD-1 colon): 51.3 µM
- TGI (DMS 114 small cell lung): 53.5 µM
- TGI (EKVX NSCLC): 69.4 µM
- TGI (HCC-2998 colon): 30.2 µM
- TGI (HCT-116 colon): 30.6 µM
- TGI (HL-60(TB) leukemia): 58.4 µM
- TGI (HOP-62 NSCLC): 35 µM
- TGI (HOP-92 NSCLC): 36.4 µM
- TGI (HT29 colon): 32.2 µM
- TGI (IGROV1 ovarian): 94.7 µM
- TGI (K-562 leukemia): 58.7 µM
- TGI (KM12 colon): 30.5 µM
- TGI (KM20L2 colon): 39.3 µM
- TGI (LOX IMVI melanoma): 35.1 µM
- TGI (LXFL 529 NSCLC): 33 µM
- TGI (M14 melanoma): 33.5 µM
- TGI (M19-MEL melanoma): 54.7 µM
- TGI (MALME-3M melanoma): 32.5 µM
- TGI (MOLT-4 leukemia): 57.5 µM
- TGI (NCI-H226 lung): 43.4 µM
- TGI (NCI-H23 lung): 31.2 µM
- TGI (NCI-H460 lung): 33.8 µM
- TGI (NCI-H522 lung): 30.9 µM
- TGI (OVCAR-3 ovarian): 38.4 µM
- TGI (OVCAR-4 ovarian): 35.9 µM
- TGI (OVCAR-5 ovarian): 36.1 µM
- TGI (OVCAR-8 ovarian): 84.5 µM
- TGI (RPMI-8226 leukemia): 41.3 µM
- TGI (RXF 393 renal): 25.4 µM
- TGI (SF-268 CNS): 57.6 µM
- TGI (SF-295 CNS): 48.5 µM
- TGI (SF-539 CNS): 40.4 µM
- TGI (SK-MEL-2 melanoma): 29.5 µM
- TGI (SK-MEL-28 melanoma): 36.6 µM
- TGI (SK-MEL-5 melanoma): 28.5 µM
- TGI (SK-OV-3 ovarian): > 100 µM
- TGI (SN12C renal): 74.3 µM
- TGI (SNB-19 CNS): 76.6 µM
- TGI (SNB-75 CNS): > 100 µM
- TGI (SNB-78 CNS): 81.7 µM
- TGI (SW-620 colon): 43.2 µM
- TGI (TK-10 renal): 53.5 µM
- TGI (U251 CNS): 30 µM
- TGI (UACC-257 melanoma): 35.4 µM
- TGI (UO-31 renal): 29.8 µM
- TGI (XF 498 CNS): 47.5 µM

SMILES: c1ccc(C2N=NN(c3ccccc3)C2N2CCCCC2)cc1 (centres undefined)
- TGI (786-0 renal): > 100 µM
- TGI (A549 NSCLC): > 100 µM
- TGI (ACHN renal): > 100 µM
- TGI (CAKI-1 renal): > 100 µM
- TGI (CCRF-CEM leukemia): > 100 µM
- TGI (COLO 205 colon): > 100 µM
- TGI (DLD-1 colon): > 100 µM
- TGI (DMS 114 small cell lung): > 100 µM
- TGI (EKVX NSCLC): > 100 µM
- TGI (HCC-2998 colon): > 100 µM
- TGI (HCT-116 colon): > 100 µM
- TGI (HCT-15 colon): > 100 µM
- TGI (HL-60(TB) leukemia): > 100 µM
- TGI (HOP-62 NSCLC): > 100 µM
- TGI (HOP-92 NSCLC): 62.4 µM
- TGI (HT29 colon): > 100 µM
- TGI (IGROV1 ovarian): > 100 µM
- TGI (K-562 leukemia): > 100 µM
- TGI (KM12 colon): > 100 µM
- TGI (KM20L2 colon): > 100 µM
- TGI (LOX IMVI melanoma): > 100 µM
- TGI (LXFL 529 NSCLC): > 100 µM
- TGI (M14 melanoma): > 100 µM
- TGI (M19-MEL melanoma): > 100 µM
- TGI (MALME-3M melanoma): > 100 µM
- TGI (MOLT-4 leukemia): > 100 µM
- TGI (NCI-H226 lung): > 100 µM
- TGI (NCI-H23 lung): > 100 µM
- TGI (NCI-H522 lung): > 100 µM
- TGI (OVCAR-3 ovarian): > 100 µM
- TGI (OVCAR-4 ovarian): > 100 µM
- TGI (OVCAR-5 ovarian): > 100 µM
- TGI (RPMI-8226 leukemia): > 100 µM
- TGI (SF-268 CNS): > 100 µM
- TGI (SF-295 CNS): > 100 µM
- TGI (SF-539 CNS): > 100 µM
- TGI (SK-MEL-2 melanoma): > 100 µM
- TGI (SK-MEL-28 melanoma): > 100 µM
- TGI (SK-MEL-5 melanoma): > 100 µM
- TGI (SK-OV-3 ovarian): 98.3 µM
- TGI (SN12C renal): > 100 µM
- TGI (SNB-19 CNS): > 100 µM
- TGI (SNB-75 CNS): 55 µM
- TGI (SNB-78 CNS): > 100 µM
- TGI (SR leukemia): > 100 µM
- TGI (SW-620 colon): > 100 µM
- TGI (TK-10 renal): > 100 µM
- TGI (U251 CNS): > 100 µM
- TGI (UACC-257 melanoma): > 100 µM
- TGI (UACC-62 melanoma): > 100 µM
- TGI (UO-31 renal): > 100 µM
- TGI (XF 498 CNS): > 100 µM
